Here are results for 9 molecules from patent US12180197B2, “GLP-1R modulating compounds” (Gilead Sciences, Inc., priority 2021, dated 2024).

This assay concerns the target GLP-1R (Homo sapiens, UniProt P43220). Kind of assay: GLP-1R Activation - cAMP Assay 2. Format: cell-based. Particulars: cAMP increase in CHO cells stably expressing GLP-1R; pre-spotted agonists; assay buffer or 100% Human Plasma (not given); 30 minutes. How it is done:
GLP-1R Activation—cAMP Assay 2
GLP-1R activation by small molecule agonists is quantified by measuring cAMP increase in CHO cells stably expressing GLP-1R (MultiSpan product #C1267-1a). 50 nL of agonists are pre-spotted in a 10 point dose response onto 384-well plate (Corning product #CL3826) using the Labcyte Echo System. The cells are harvested and plated in assay buffer (HBSS (Corning product #21-023-CV) with 20 mM Hepes (Gibco product #15630-080) and 0.1% BSA (Rockland Immunochemicals product #BSA-1000)) or 100% Human Plasma (Innovative Research product #50-643-396) at 1,000 cells/well, 10 μL/well, onto the pre-spotted plates. The cells are then incubated for 30 minutes at 37° C., 5% CO2. cAMP concentration increase is then detected using Cisbio's cAMP Gs Dynamic Kit (product #62AM4PEC) according to the manufacturer's protocol. The response is plotted against the log of the agonist concentration and fitted to a sigmoidal equation to determine the EC50.

For orientation: EC50 means the midpoint of the concentration-response curve.

GLP-1R, sequence (P43220 24-463): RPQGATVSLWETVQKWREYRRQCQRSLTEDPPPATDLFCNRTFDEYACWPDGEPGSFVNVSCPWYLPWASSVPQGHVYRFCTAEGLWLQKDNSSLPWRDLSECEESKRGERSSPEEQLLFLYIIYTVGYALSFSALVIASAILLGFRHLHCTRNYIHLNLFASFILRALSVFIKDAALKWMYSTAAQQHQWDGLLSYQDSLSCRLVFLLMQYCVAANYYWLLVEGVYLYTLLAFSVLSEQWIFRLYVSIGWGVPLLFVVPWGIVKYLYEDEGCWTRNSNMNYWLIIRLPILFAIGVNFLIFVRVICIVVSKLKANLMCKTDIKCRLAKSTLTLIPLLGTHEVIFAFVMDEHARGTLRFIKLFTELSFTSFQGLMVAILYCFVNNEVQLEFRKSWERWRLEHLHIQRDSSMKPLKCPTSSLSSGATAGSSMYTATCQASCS

For `Cn1cc(-c2ccc(COc3cccc(C4CCN(Cc5nc6ccc(C(=O)O)cc6n5C[C@@H]5CCO5)CC4)n3)c(F)c2)cn1` [Example 15, 2-[[4-[6-[[2-fluoro-4-(1-methylpyrazol-4-yl)phenyl]methoxy]-2-pyridyl]-1-piperidyl]methyl]-3-[[(2S)-oxetan-2-yl]methyl]benzimidazole-5-carboxylic acid], the EC50 is 0.5 nM.

Consider `Cn1cc(C#Cc2ccc(COc3cccc(C4CCN(Cc5nc6ccc(C(=O)O)cc6n5C[C@@H]5CCO5)CC4)n3)c(F)c2)cn1` [Example 22, 2-[[4-[6-[[2-fluoro-4-[2-(1-methylpyrazol-4-yl)ethynyl]phenyl]methoxy]-2-pyridyl]-1-piperidyl]methyl]-3-[[(2S)-oxetan-2-yl]methyl]benzimidazole-5-carboxylic acid], for which the EC50 is 3.1 nM.

In turn, `O=C(O)c1ccc2nc(CN3CCC(c4cccc(OCc5ccc(-n6ccnn6)cc5F)n4)CC3)n(C[C@@H]3CCO3)c2c1` [Example 41, (S)-2-((4-(6-((2-fluoro-4-(1H-1,2,3-triazol-1-yl)benzyl)oxy)pyridin-2-yl)piperidin-1-yl)methyl)-1-(oxetan-2-ylmethyl)-1H-benzo[d]imidazole-6-carboxylic acid] yielded an EC50 of 0.3 nM.

`Cn1cc(-c2ccc(COc3cccc(C4CCN(Cc5nc6ccc(C(=O)O)cc6n5C[C@@H]5CCO5)CC4)n3)c(F)c2)nn1` [Example 18, (S)-2-((4-(6-((2-fluoro-4-(1-methyl-1H-1,2,3-triazol-4-yl)benzyl)oxy)pyridin-2-yl)piperidin-1-yl)methyl)-1-(oxetan-2-ylmethyl)-1H-benzo[d]imidazole-6-carboxylic acid] returned an EC50 of 1.5 nM.

Regarding `O=C(O)c1ccc2nc(CN3CCC(c4cccc(OCc5ccc(-c6cn(C7CC7)nn6)cc5F)n4)CC3)n(C[C@@H]3CCO3)c2c1` [Example 23, (S)-2-((4-(6-((4-(1-cyclopropyl-1H-1,2,3-triazol-4-yl)-2-fluorobenzyl)oxy)pyridin-2-yl)piperidin-1-yl)methyl)-1-(oxetan-2-ylmethyl)-1H-benzo[d]imidazole-6-carboxylic acid], the EC50 came out at 1.7 nM.

As for `O=C(O)c1ccc2nc(CN3CCC(c4cccc(OCc5ccc(-c6cn(C7COC7)nn6)cc5F)n4)CC3)n(C[C@@H]3CCO3)c2c1` [Example 24, (S)-2-((4-(6-((2-fluoro-4-(1-(oxetan-3-yl)-1H-1,2,3-triazol-4-yl)benzyl)oxy)pyridin-2-yl)piperidin-1-yl)methyl)-1-(oxetan-2-ylmethyl)-1H-benzo[d]imidazole-6-carboxylic acid], the EC50 was determined as 1.7 nM.

`COCCn1c(CN2CCC(c3cccc(OCc4ccc(-c5cn(C)nn5)cc4F)n3)CC2)nc2ccc(C(=O)O)cc21` [Example 17, 2-((4-(6-((2-fluoro-4-(1-methyl-1H-1,2,3-triazol-4-yl)benzyl)oxy)pyridin-2-yl)piperidin-1-yl)methyl)-1-(2-methoxyethyl)-1H-benzo[d]imidazole-6-carboxylic acid] showed an EC50 of 24.6 nM.

`O=C(O)c1ccc2nc(CN3CCC(c4cccc(OCc5ccc(-c6cnc(C7CC7)o6)cc5F)n4)CC3)n(C[C@@H]3CCO3)c2c1` [Example 20, (S)-2-((4-(6-((4-(2-cyclopropyloxazol-5-yl)-2-fluorobenzyl)oxy)pyridin-2-yl)piperidin-1-yl)methyl)-1-(oxetan-2-ylmethyl)-1H-benzo[d]imidazole-6-carboxylic acid] showed an EC50 of 1.9 nM.

For `O=C(O)c1ccc2nc(CN3CCC(c4cccc(OCc5ccc(-n6cc(C7CC7)nn6)cc5F)n4)CC3)n(C[C@@H]3CCO3)c2c1` [Example 40, 2-[[4-[6-[[4-(4-cyclopropyltriazol-1-yl)-2-fluoro-phenyl]methoxy]-2-pyridyl]-1-piperidyl]methyl]-3-[[(2S)-oxetan-2-yl]methyl]benzimidazole-5-carboxylic acid], the EC50 was 1.3 nM.
